In this experiment the test system is ORYSA=Orysa sativa, Rice. As to the kind of experiment: Postemergence foliar-applied herbicides and safeners in direct-seeded rice, visual injury. Particulars: for Visual crop injury (%) at 140 g/ha: Oryza sativa, 480 h, read-out: Visual Injury (%) - 20 DAA ORYSA-‘Clearfield 171’ Obs, foliar, Compound A form 140 g ae/ha alone; for Visual crop injury (%) at 140 g/ha / Visual Injury (%) - 21 DAA ORYSA-‘Clearfield 171’ Obs / Visual Injury (%) - 21 DAA ORYSA-‘Neptune’ Obs / Visual Injury (%) - 21 DAA ORYSA-‘Wells’ Obs: foliar; for Visual Injury (%) - 21 DAA ORYSA-‘Clearfield 171’ Obs / Visual Injury (%) - 21 DAA ORYSA-‘Neptune’ Obs / Visual Injury (%) - 21 DAA ORYSA-‘Wells’ Obs: Compound A form 70 g ae/ha alone, Tables 1,2,7,8; for Mean Visual Injury (%) - 20-22 DAA ORYSA ‘Clearfield 171’ / Mean Visual Injury (%) - 20-22 DAA ORYSA ‘Wells’: post-emergence foliar. It counts as in vivo. The source says: Seeds or nutlets of the desired test plant species were planted in a soil matrix prepared by mixing a loam or sandy loam soil (e.g., 28.6 percent silt, 18.8 percent clay, and 52.6 percent sand, with a pH of about 5.8 and an organic matter content of about 1.8 percent) and calcareous grit in an 80 to 20 ratio. The soil matrix was contained in plastic pots with a surface area of 84.6 square centimeters (cm^2). When required to ensure good germination and healthy plants, a fungicide treatment and/or other chemical or physical treatment was applied. The plants were grown for 8-22 days in a greenhouse with an approximate 14 hr photoperiod which was maintained at about 29° C. during the day and 26° C. during the night. Nutrients (Peters Excel 15-5-15 5-Ca 2-Mg and iron chelate) were applied in the irrigation solution as needed and water was added on a regular basis. Supplemental lighting was provided with overhead metal halide 1000-Watt lamps as necessary. The plants were employed for testing when they reached the second or third true leaf stage.
Treatments consisted of the acid or esters of 4-amino-3-chloro-5-fluoro-6-(4-chloro-2-fluoro-3-methoxy-phenyl)pyridine-2-carboxylic acid (compound A) and various safener components alone and in combination. Forms of compound A were applied on an acid equivalent basis. Safener components were applied on an active ingredient or acid equivalent basis depending on the compound.
Treatment requirements were calculated based upon the rates being tested, the concentration of active ingredient or acid equivalent in the formulation, and a 12 mL application volume at a rate of 187 L/ha.
For treatments comprised of formulated compounds, measured amounts of compounds were placed individually in 25 mL glass vials and diluted in a volume of 1.25% (v/v) Agri-dex crop oil concentrated to obtain 12× stock solutions. […] Application solutions were prepared by adding an appropriate amount of each stock solution (e.g., 1 mL) and diluted to the appropriate final concentrations with the addition of 10 mL of an aqueous mixture of 1.25% (v/v) Agri-dex crop oil concentrate so that the final spray solutions contained 1.25% (v/v) Agri-dex crop oil concentrate.
For treatments comprised of technical compounds, weighed amounts were placed individually in 25 mL glass vials and dissolved in a volume of 97:3 v/v acetone/DMSO to obtain 12× stock solutions. […] Application solutions were prepared by adding an appropriate amount of each stock solution (e.g., 1 mL) and diluted to the appropriate final concentrations with the addition of 10 mL of an aqueous mixture of 1.5% (v/v) Agri-dex crop oil concentrate so that the final spray solutions contained 1.25% (v/v) Agri-dex crop oil concentrate. When technical materials were used, the concentrated stock solutions were added to the spray solutions so that the final acetone and DMSO concentrations of the application solutions were […], respectively.
For treatments comprised of formulated and technical compounds, weighed amounts of the technical materials were placed individually in 25 mL glass vials and dissolved in a volume of 97:3 v/v acetone/DMSO to obtain 12× stock solutions, and measured amounts of the formulated compounds were placed individually in 25 mL glass vials and diluted in a volume of 1.5% (v/v) Agri-dex crop oil concentrate or water to obtain 12× stock solutions. […] Application solutions were prepared by adding an appropriate amount of each stock solution (e.g., 1 mL) and diluted to the appropriate final concentrations with the addition of an appropriate amount of an aqueous mixture of 1.5% (v/v) Agri-dex crop oil concentrate so that the final spray solutions contained 1.25% (v/v) Agri-dex crop oil concentrate. When required, additional water and/or 97:3 v/v acetone/DMSO was added to individual application solutions so that the final acetone and DMSO concentrations of the application solutions being compared were 8.1% and 0.25%, respectively. […]

These results are taken from patent publication US10172355B2, “Safened herbicidal compositions including 4-amino-3-chloro-5-fluoro-6-(4-chloro-2-fluoro-3-methoxyphenyl)pyridine-2-carboxylic acid or a derivative thereof for use in rice” (Dow AgroSciences LLC, priority 2012, dated 2019).

Where two headings read alike, the source gives them in different places.

For `COc1c(Cl)ccc(-c2nc(C(=O)O)c(Cl)c(N)c2F)c1F` [Acid, 4-amino-3-chloro-6-(4-chloro-2-fluoro-3-methoxyphenyl)-5-fluoropyridine-2-carboxylic acid], the “Visual Injury (%) - 21 DAA ORYSA-‘Clearfield 171’ Obs” value worked out at 22%, the “Visual Injury (%) - 21 DAA ORYSA-‘Neptune’ Obs” value is 40% and the “Visual Injury (%) - 21 DAA ORYSA-‘Wells’ Obs” value is 12%. The Visual crop injury (%) at 140 g/ha (trial of Tables 3,4,6,10,12,14) stood at 43%. Under “trial of Tables 5,9,11,13”, the Visual crop injury (%) at 140 g/ha came to 38%. Moreover, under “2 g ae/ha”, the “Mean Visual Injury (%) - 20-22 DAA ORYSA ‘Clearfield 171’” value is on record as 0% and the “Mean Visual Injury (%) - 20-22 DAA ORYSA ‘Wells’” value was found to be 0%. Where the note is “4 g ae/ha”, the “Mean Visual Injury (%) - 20-22 DAA ORYSA ‘Clearfield 171’” value came to 0% and the “Mean Visual Injury (%) - 20-22 DAA ORYSA ‘Wells’” value worked out at 0%. Where the note is “8 g ae/ha”, the “Mean Visual Injury (%) - 20-22 DAA ORYSA ‘Clearfield 171’” value worked out at 2% and the “Mean Visual Injury (%) - 20-22 DAA ORYSA ‘Wells’” value is reported as 0%. Also, where the note is “16 g ae/ha”, the “Mean Visual Injury (%) - 20-22 DAA ORYSA ‘Clearfield 171’” value worked out at 11% and the “Mean Visual Injury (%) - 20-22 DAA ORYSA ‘Wells’” value was 7%. For the same molecule, where the note is “32 g ae/ha”, the “Mean Visual Injury (%) - 20-22 DAA ORYSA ‘Clearfield 171’” value amounted to 24% and the “Mean Visual Injury (%) - 20-22 DAA ORYSA ‘Wells’” value is given as 12%.
Take `COc1c(Cl)ccc(-c2nc(C(=O)OCc3ccccc3)c(Cl)c(N)c2F)c1F` [Benzyl]: the “Visual Injury (%) - 21 DAA ORYSA-‘Clearfield 171’ Obs” value is recorded as 0%, the “Visual Injury (%) - 21 DAA ORYSA-‘Neptune’ Obs” value turned out to be 5% and the “Visual Injury (%) - 21 DAA ORYSA-‘Wells’ Obs” value is listed as 0%. Where the note is “trial of Tables 3,4,6,10,12,14”, the Visual crop injury (%) at 140 g/ha came to 13%. The Visual crop injury (%) at 140 g/ha (trial of Tables 5,9,11,13) turned out to be 15%. Under “2 g ae/ha”, the “Mean Visual Injury (%) - 20-22 DAA ORYSA ‘Clearfield 171’” value worked out at 0% and the “Mean Visual Injury (%) - 20-22 DAA ORYSA ‘Wells’” value stood at 0%. Where the note is “4 g ae/ha”, the “Mean Visual Injury (%) - 20-22 DAA ORYSA ‘Clearfield 171’” value is on record as 0% and the “Mean Visual Injury (%) - 20-22 DAA ORYSA ‘Wells’” value is 0%. Further, where the note is “8 g ae/ha”, the “Mean Visual Injury (%) - 20-22 DAA ORYSA ‘Clearfield 171’” value was 0% and the “Mean Visual Injury (%) - 20-22 DAA ORYSA ‘Wells’” value turned out to be 0%. For the same molecule, for the setting “16 g ae/ha”, the “Mean Visual Injury (%) - 20-22 DAA ORYSA ‘Clearfield 171’” value is given as 8% and the “Mean Visual Injury (%) - 20-22 DAA ORYSA ‘Wells’” value came out at 3%. For the setting “32 g ae/ha”, the “Mean Visual Injury (%) - 20-22 DAA ORYSA ‘Clearfield 171’” value is given as 3% and the “Mean Visual Injury (%) - 20-22 DAA ORYSA ‘Wells’” value is 3%.
